In patent US7700782B2, “Compounds 569” (AstraZeneca AB, priority 2007, dated 2010):
Where a name gives a salt, the structure may show the parent alone.

Target: T1, Adrenergic β2 (Homo sapiens, UniProt P07550)
T1 construct: Adherent H292 cells were removed from tissue culture flasks; endogenous in cells; host or cells: H292 cells
Assay: Adrenergic β2 mediated cAMP production in H292 cells (AlphaScreen cAMP detection)
Assay type: cell-based
Conditions: Intrinsic Activity, fraction relative to the maximum activity determined for formoterol
Outline: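 H292 cells, 5000/well, preincubated 10 min with rolipram (final 300 μM, 1.6% DMSO) in HEPES pH 7.4 HBSS, then compound 60 min at room temperature. Lysate cAMP quantified by AlphaScreen against a cAMP standard curve. pEC50 and intrinsic activity (fraction of formoterol maximum) from four-parameter logistic fits.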

T1 sequence (P07550 whole entry): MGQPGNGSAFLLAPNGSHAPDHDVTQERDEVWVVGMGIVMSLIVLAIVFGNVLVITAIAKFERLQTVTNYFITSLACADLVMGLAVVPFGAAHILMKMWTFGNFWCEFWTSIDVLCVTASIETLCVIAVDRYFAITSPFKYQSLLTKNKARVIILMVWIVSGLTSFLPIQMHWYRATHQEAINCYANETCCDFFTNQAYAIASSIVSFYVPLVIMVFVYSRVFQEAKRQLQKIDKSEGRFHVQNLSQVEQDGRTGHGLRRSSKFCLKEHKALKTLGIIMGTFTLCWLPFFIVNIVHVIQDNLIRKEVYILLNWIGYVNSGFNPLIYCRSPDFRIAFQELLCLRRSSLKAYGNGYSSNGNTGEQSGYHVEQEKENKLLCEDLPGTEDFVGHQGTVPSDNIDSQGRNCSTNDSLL

Q: O=C(CCNCCc1ccc(F)cc1F)N(CCNCCc1ccc(O)c2[nH]c(=O)sc12)C1CCCCCC1 [Example 55, N^1-Cycloheptyl-N^3-[2-(2,4-difluorophenyl)ethyl]-N^1-(2-{[2-(4-hydroxy-2-oxo-2,3-dihydro-1,3-benzothiazol-7-yl)ethyl]amino}ethyl)-β-alaninamide bis-trifluoroacetic acid salt] was tested. Which “β2 Int Act” value did it give?
A: 0.81

Q: O=C(CCNCCc1cccc(F)c1F)N(CCNCCc1ccc(O)c2[nH]c(=O)sc12)C1CCCCCC1 [Example 56, N^1-Cycloheptyl-N^3-[2-(2,3-difluorophenyl)ethyl]-N^1-(2-{[2-(4-hydroxy-2-oxo-2,3-dihydro-1,3-benzothiazol-7-yl)ethyl]amino}ethyl)-β-alaninamide bis-trifluoroacetic acid salt] was tested. Which “β2 Int Act” value did it give?
A: 0.86

Q: O=C(CCNCCc1ccc(F)cc1Cl)N(CCNCCc1ccc(O)c2[nH]c(=O)sc12)C1CCCCCC1 [Example 57, N^3-[2-(2-Chloro-4-fluorophenyl)ethyl]-N^1-cycloheptyl-N^1-(2-{[2-(4-hydroxy-2-oxo-2,3-dihydro-1,3-benzothiazol-7-yl)ethyl]amino}ethyl)-β-alaninamide bis-trifluoroacetic acid salt] was tested. Which “β2 Int Act” value did it give?
A: 0.72

Q: O=C(CCNCCc1cc(F)cc(F)c1)N(CCNCCc1ccc(O)c2[nH]c(=O)sc12)C1CCCCCC1 [Example 58, N^1-Cycloheptyl-N^3-[2-(3,5-difluorophenyl)ethyl]-N^1-(2-{[2-(4-hydroxy-2-oxo-2,3-dihydro-1,3-benzothiazol-7-yl)ethyl]amino}ethyl)-β-alaninamide bis-trifluoroacetic acid salt] was tested. Which “β2 Int Act” value did it give?
A: 0.84

Q: For O=C(CCNCCc1ccccc1)N(CCNCCc1ccc(O)c2[nH]c(=O)sc12)CC12CC3CC(CC(C3)C1)C2 [Example 59, N^1-(1-Adamantylmethyl)-N^1-(2-{[2-(4-hydroxy-2-oxo-2,3-dihydro-1,3-benzothiazol-7-yl)ethyl]amino}ethyl)-N^3-(2-phenylethyl)-β-alaninamide bis-trifluoroacetic acid salt], which “β2 Int Act” value is on record?
A: 0.85

Q: Which “β2 Int Act” value does the source give for O=C(CCNCCc1cccc(F)c1)N(CCNCCc1ccc(O)c2[nH]c(=O)sc12)CC12CC3CC(CC(C3)C1)C2 [Example 60, N^1-(1-Adamantylmethyl)-N^3-[2-(3-fluorophenyl)ethyl]-N^1-(2-{[2-(4-hydroxy-2-oxo-2,3-dihydro-1,3-benzothiazol-7-yl)ethyl]amino}ethyl)-β-alaninamide bis-trifluoroacetic acid salt] here?
A: 0.76

Q: For O=C(CCNCCc1ccc(F)cc1)N(CCNCCc1ccc(O)c2[nH]c(=O)sc12)CC12CC3CC(CC(C3)C1)C2 [Example 61, N^1-(1-Adamantylmethyl)-N^3-[2-(4-fluorophenyl)ethyl]-N^1-(2-{[2-(4-hydroxy-2-oxo-2,3-dihydro-1,3-benzothiazol-7-yl)ethyl]amino}ethyl)-β-alaninamide bis-trifluoroacetic acid salt], which “β2 Int Act” value is on record?
A: 0.79

Q: For O=C(CCNCCc1ccccc1)N(CCNCCc1ccc(O)c2[nH]c(=O)sc12)C1CCSCC1 [Example 62, N^1-(2-{[2-(4-Hydroxy-2-oxo-2,3-dihydro-1,3-benzothiazol-7-yl)ethyl]amino}ethyl)-N^3-(2-phenylethyl)-N^1-(tetrahydro-2H-thiopyran-4-yl)-β-alaninamide bis-trifluoroacetic acid salt], which “β2 Int Act” value is on record?
A: 0.87

Q: How did the “β2 Int Act” value turn out when CCCC(CCC)N(CCNCCc1ccc(O)c2[nH]c(=O)sc12)C(=O)CCNCCc1cccc(F)c1 [Example 63, N^3-[2-(3-Fluorophenyl)ethyl]-N^1-(2-{[2-(4-hydroxy-2-oxo-2,3-dihydro-1,3-benzothiazol-7-yl)ethyl]amino}ethyl)-N^1-(1-propylbutyl)-β-alaninamide bis-trifluoroacetic acid salt] was run?
A: 0.93

Q: With CCCC(CCC)N(CCNCCc1ccc(O)c2[nH]c(=O)sc12)C(=O)CCNCCc1ccc(F)cc1 [Example 64, N^3-[2-(4-Fluorophenyl)ethyl]-N^1-(2-{[2-(4-hydroxy-2-oxo-2,3-dihydro-1,3-benzothiazol-7-yl)ethyl]amino}ethyl)-N^1-(1-propylbutyl)-β-alaninamide bis-trifluoroacetic acid salt] as the molecule, how does the “β2 Int Act” value read?
A: 0.70

Q: For CC(C)(CO)CN(CCNCCc1ccc(O)c2[nH]c(=O)sc12)C(=O)CCNCCc1ccccc1Cl [Example 65, N^3-[2-(2-Chlorophenyl)ethyl]-N^1-(3-hydroxy-2,2-dimethylpropyl)-N^1-(2-{[2-(4-hydroxy-2-oxo-2,3-dihydro-1,3-benzothiazol-7-yl)ethyl]amino}ethyl)-β-alaninamide bis-trifluoroacetic acid salt], which “β2 Int Act” value is on record?
A: 0.59

Q: How did the “β2 Int Act” value turn out when CC(C)(CO)CN(CCNCCc1ccc(O)c2[nH]c(=O)sc12)C(=O)CCNCCc1cccc(Cl)c1 [Example 66, N^3-[2-(3-Chlorophenyl)ethyl]-N^1-(3-hydroxy-2,2-dimethylpropyl)-N^1-(2-{[2-(4-hydroxy-2-oxo-2,3-dihydro-1,3-benzothiazol-7-yl)ethyl]amino}ethyl)-β-alaninamide bis-trifluoroacetic acid salt] was run?
A: 0.59

Q: How did the “β2 Int Act” value turn out when CC(C)(CO)CN(CCNCCc1ccc(O)c2[nH]c(=O)sc12)C(=O)CCNCCc1cccc(Cl)c1Cl [Example 67, N^3-[2-(2,3-Dichlorophenyl)ethyl]-N^1-(3-hydroxy-2,2-dimethylpropyl)-N^1-(2-{[2-(4-hydroxy-2-oxo-2,3-dihydro-1,3-benzothiazol-7-yl)ethyl]amino}ethyl)-β-alaninamide bis-trifluoroacetic acid salt] was run?
A: 0.70

Q: Which “β2 Int Act” value does the source give for COc1ccc(CCNCCC(=O)N(CCNCCc2ccc(O)c3[nH]c(=O)sc23)C2CCCCC2)cc1 [Example 68, N^1-Cyclohexyl-N^1-(2-{[2-(4-hydroxy-2-oxo-2,3-dihydro-1,3-benzothiazol-7-yl)ethyl]amino}ethyl)-N^3-[2-(4-methoxyphenyl)ethyl]-β-alaninamide bis-trifluoroacetic acid salt] here?
A: 0.68

Q: NS(=O)(=O)c1ccc(CCNCCC(=O)N(CCNCCc2ccc(O)c3[nH]c(=O)sc23)C2CCCCC2)cc1 [Example 69, N^3-{2-[4-(Aminosulfonyl)phenyl]ethyl}-N^1-cyclohexyl-N^1-(2-{[2-(4-hydroxy-2-oxo-2,3-dihydro-1,3-benzothiazol-7-yl)ethyl]amino}ethyl)-β-alaninamide bis-trifluoroacetic acid salt] was tested. Which “β2 Int Act” value did it give?
A: 0.82

Q: With COc1cccc(CCNCCC(=O)N(CCNCCc2ccc(O)c3[nH]c(=O)sc23)C2CCCCC2)c1 [Example 70, N^1-Cyclohexyl-N^1-(2-{[2-(4-hydroxy-2-oxo-2,3-dihydro-1,3-benzothiazol-7-yl)ethyl]amino}ethyl)-N^3-[2-(3-methoxyphenyl)ethyl]-β-alaninamide bis-trifluoroacetic acid salt] as the molecule, how does the “β2 Int Act” value read?
A: 0.84

Q: For O=C(CCNCCc1cccc(O)c1)N(CCNCCc1ccc(O)c2[nH]c(=O)sc12)C1CCCCC1 [Example 71, N^1-Cyclohexyl-N^1-(2-{[2-(4-hydroxy-2-oxo-2,3-dihydro-1,3-benzothiazol-7-yl)ethyl]amino}ethyl)-N^3-[2-(3-hydroxyphenyl)ethyl]-β-alaninamide bis-trifluoroacetic acid salt], which “β2 Int Act” value is on record?
A: 0.97
